# Reference: patent US20240180836A1, “Cationic Lipid Compound and Composition for Delivery of Nucleic Acids and Use Thereof” (Shenzhen Rhegen Biotechnology Co., Ltd., priority 2022, published 2024)
# Assay: In vivo metabolic rates of cationic lipids (cationic lipid content in liver by HPLC-CAD)
# Conditions: 5 ug EPO-mRNA-lipid nanoparticles, tail vein injection, female Balb/c mice, 1 h to 48 h after injection, compared with DLin-MC3-DMA
# Description: 5 ug EPO-mRNA-lipid nanoparticles were injected via tail vein injection in 6-8 week old female Balb/c mice, prepared as in Example 13. After injection, the mice were executed at different time points (1 h, 3 h, 6 h, 24 h, 48 h after injection). The livers were taken and crushed, and the lipids were extracted from them with chloroform in three times, and the extracts were finally combined. After spin distillation to remove chloroform, methanol was added to dissolve the sample, and the cationic lipid content therein was analyzed by HPLC-CAD (Thermo Vanquish), with an Acclaim™ C18 column as the analytical column, a 0.5% TEAA aqueous solution as mobile phase A and a 0.5% TEAA methanol solution as mobile phase B. The sample was eluted according to the gradient in Table 2 below.
smiles,measurement,value
CCCCCCCCCSC(=O)CCCCCCCN(CCO)CCCCCCCC(=O)SC(CCCCCCCC)CCCCCCCC [Compound 9],In vivo metabolism rate of cationic lipid (FIG. 3),metabolized in vivo faster than DLin-MC3-DMA
